# Laboratory results reported in patent US4391827A, “3-(2-Hydroxy-4-(substituted)phenyl)-cycloalkanone and cycloalkanol analgesic agents and intermediates therefor” (priority 1981, dated 1983).
# What was measured:
# [1] = Suppression of Phenylbenzoquinone Irritant-Induced Writhing (PBQ); assay type: in vivo, Carworth Farms CF-1 mice; conditions: subcutaneously, mouse; for Analgesic Activity % Protection, PBQ: at 56 mg./kg.; for ED50: sc, PBQ-induced writhing, read-out: Analgesic Activity ED50, PBQ
# Protocol: Suppression of Phenylbenzoquinone Irritant-Induced Writhing
# Groups of 5 Carworth Farms CF-1 mice are pretreated subcutaneously or orally with saline, morphine, codeine or the test compound. Twenty minutes (if treated subcutaneously) or fifty minutes (if treated orally) later, each group is treated with intraperitoneal injection of phenylbenzoquinone, an irritant known to produce abdominal contractions. The mice are observed for 5 minutes for the presence or absence of writhing starting 5 minutes after the injection of the irritant. MPE50 's of the drug pretreatments in blocking writhing are ascertained.
# (§1) Results of the above tests are recorded as percent maximum possible effect (%MPE). The %MPE of each group is statistically compared to the %MPE of the standard and the predrug control values. The %MPE is calculated as follows: [formula]
# (§2) The following abbreviations are used in the Tables: PBQ=phenylbenzoquinone-induced writhing; TF=tail flick; HP=hot plate; RTC=rat tail clamp; and FJ=flinch jump.
# (§3) Single values in the tables are ED50 's. A number followed by a second number in parentheses reports the % protection observed at a given dose. Thus, 31(56) indicates 31% protection at a dose of 56 mg./kg. of body weight.
# [2] = Haffner Tail Pinch Procedure (rat tail clamp, RTC); assay type: in vivo, male albino rats, Charles River (Sprague-Dawley) CD strain; conditions: for ED50: sc, subcutaneously, rat tail clamp, read-out: Analgesic Activity ED50, RTC
# Protocol: Effect on the Haffner Tail Pinch Procedure
# A modification of the procedure of Haffner, Experimentelle Prufung Schmerzstillender. Deutch Med. Wschr., 55, 731-732 (1929) is used to ascertain the effects of the test compound on aggressive attacking responses elicited by a stimulus pinching the tail. Male albino rats (50-60 g.) of the Charles River (Sprague-Dawley) CD strain are used. Prior to drug treatment, and again at 0.5, 1, 2 and 3 hours after treatment, a Johns Hopkins 2.5-inch "bulldog" clamp is clamped onto the root of the rat's tail. The endpoint at each trial is clear attacking and biting behavior directed toward the offending stimulus, with the latency for attack recorded in seconds. The clamp is removed in 30 seconds if attacking has not yet occurred, and the latency of response is recorded as 30 seconds. Morphine is active at 17.8 mg./kg. (i.p.).
# as §1, §2, §3
# "Flinch-Jump" Test (FJ) = assay type: in vivo, male albino rats, Charles River (Sprague-Dawley) CD strain; conditions: sc; subcutaneously; rat flinch jump; read-out: Analgesic Activity ED50, FJ
# From the text: A modification of the flinch-jump procedure of Tenen, Psychopharmacologia, 12, 278-285 (1968) is used for determining pain thresholds. Male albino rats (175-200 g.) of the Charles River (Sprague-Dawley) CD strain are used. Prior to receiving the drug, the feet of each rat are dipped into a 20% glycerol/saline solution. The animals are then placed in a chamber and presented with a series of 1-second shocks to the feet which are delivered in increasing intensity at 30-second intervals. These intensities are 0.26, 0.39, 0.52, 0.78, 1.05, 1.31, 1.58, 1.86, 2.13, 2.42, 2.72 and 3.04 mA. Each animal's behavior is rated for the presence of (a) flinch, (b) squeak and (c) jump or rapid forward movement at shock onset. Single upward series of shock intensities are presented to each rat just prior to, and at 0.5, 2, 4 and 24 hours subsequent to drug treatment.
# as §1, §2, §3
# [3] = Mouse Tail Flick Analgesic Testing (TF); assay type: in vivo, mice; conditions: for ED50: sc; for ED50 / Analgesic Activity % Protection, TF: subcutaneously, mouse tail flick; for Analgesic Activity % Protection, TF: at 10 mg./kg.
# From the text: (b) Mouse Tail Flick Analgesic Testing
# Tail flick testing in mice is modified after D'Amour and Smith, J. Pharmacol. Exp. Ther., 72, 74-79 (1941) using controlled high intensity heat applied to the tail. Each mouse is placed in a snug-fitting metal cylinder, with the tail protruding through one end. This cylinder is arranged so that the tail lies flat over a concealed heat lamp. At the onset of testing an aluminum flag over the lamp is drawn back, allowing the light beam to pass through the slit and focus onto the end of the tail. A timer is simultaneously activated. The latency of a sudden flick of the tail is ascertained. Untreated mice usually react within 3-4 seconds after exposure to the lamp. The end point for protection is 10 seconds. Each mouse is tested at 0.5 and 2 hours after treatment with morphine and the test compound. Morphine has an MPE50 of 3.2-5.6 mg./kg. (s.c.).
# as §1, §2, §3
# [4] = Mouse Hot Plate Analgesic Testing (HP); assay type: in vivo, mice; design: key to Analgesic Activity, HP (IA@10): IA: inactive
# Protocol: (a) Mouse Hot Plate Analgesic Testing
# The method used is modified after Woolfe and MacDonald, J. Pharmacol. Exp. Ther., 80, 300-307 (1944). A controlled heat stimulus is applied to the feet of mice on a 1/8-inch thick aluminum plate. A 250 watt reflector infrared heat lamp is placed under the bottom of the aluminum plate. A thermal regulator, connected to thermistors on the plate surface, programs the heat lamp to maintain a constant temperature of 57° C. Each mouse is dropped into a glass cylinder (61/2-inch diameter) resting on the hot plate, and timing is begun when the animal's feet touch the plate. The mouse is observed at 0.5 and 2 hours after treatment with the test compound for the first "flicking" movements of one or both hind feet, or until 10 seconds elapse without such movements. Morphine has an MPE50 =4-5.6 mg./kg. (s.c.).
# as §1, §2, §3
# [5] = subcutaneously, at 10 mg./kg., mouse hot plate
Compound,"Analgesic Activity % Protection, PBQ [1]",ED50 [1],further results
CC(CCCc1ccccc1)Oc1ccc([C@H]2CCC[C@H](O)C2)c(O)c1 (stereo partly drawn),28%,,
CCCCCCC(C)(C)c1ccc([C@H]2CC[C@H](O)C2)c(O)c1 (relative stereo),36%,,
Oc1cc(OCCCCc2ccccc2)ccc1[C@H]1CCC[C@H](O)C1 (relative stereo),,≥ 56 mg/kg,
"CCCCCCC(C)(C)c1ccc([C@]2(C)CCC[C@H](O)C2)c(O)c1 (relative stereo) [Z-3-[4-(1,1-dimethylheptyl)-2-hydroxyphenyl]-3-methylcyclohexanol]",,≥ 56 mg/kg,
"CCCCCCC(C)(C)c1ccc([C@H]2C[C@@H](O)CC[C@@H]2C)c(O)c1 (relative stereo) [cis,trans-3-[4-(1,1-dimethylheptyl)-2-hydroxyphenyl]-4-methylcyclohexanol]",,≤ 1 mg/kg,
Oc1cc(OCCCCc2ccccc2)ccc1[C@@H]1CCC[C@H](O)C1 (relative stereo) [cis-3-[2-Hydroxy-4-(4-phenylbutyloxy)phenyl]cyclohexanol],,≤ 56 mg/kg,
"CCCCCCC(C)(C)c1ccc([C@@H]2CC(=O)CC[C@@H]2C)c(O)c1 (relative stereo) [cis-3-[4-(1,1-Dimethylheptyl)-2-hydroxyphenyl]-4-methylcyclohexanone]",,1.51 mg/kg,
"CCCCCCC(C)(C)c1ccc([C@@H]2CC[C@H](O)C2)c(O)c1 (relative stereo) [cis-3-[4-(1,1-Dimethylheptyl)-2-hydroxyphenyl]cyclopentanol]",57%,,
"CCCCCCC(C)(C)c1ccc([C@@H]2CCC[C@H](O)C2)c(O)c1 (relative stereo) [cis-3-[4-(1,1-dimethylheptyl) 2-hydroxyphenyl]cyclohexanol]",,1.1 mg/kg,"ED50 [2]: 4.7 mg/kg; ED50 (""Flinch-Jump"" Test (FJ)): 4 mg/kg; ED50 [3]: 6.8 mg/kg"
"CCCCCCC(C)(C)c1ccc([C@@H]2CCCC[C@H](O)C2)c(O)c1 (relative stereo) [cis-3-[4-(1,1-dimethylheptyl)-2-hydroxyphenyl]cycloheptanol]",,1.5 mg/kg,"Analgesic Activity % Protection, HP [4, 5]: 27%; ED50 [2]: 7.7 mg/kg; ED50 (""Flinch-Jump"" Test (FJ)): 3.5 mg/kg; Analgesic Activity % Protection, TF [3]: 32%"
"CCCCCCC(C)(C)c1ccc([C@@H]2C[C@@H](O)CC[C@H]2C)c(O)c1 (relative stereo) [trans,trans-3-[4-(1,1-dimethylheptyl)-2-hydroxyphenyl]-4-methylcyclohexanol]",,0.5 mg/kg,
"CCCCCCC(C)(C)c1ccc([C@H]2CCC[C@H](O)C2)c(O)c1 (relative stereo) [trans-3-[4-(1,1-Dimethylheptyl)-2-hydroxyphenyl]cyclohexanol]",,3.8 mg/kg,
"CCCCCCC(C)(C)c1ccc([C@H]2CCCC[C@H](O)C2)c(O)c1 (relative stereo) [trans-3-[4-(1,1-dimethylheptyl)-2-hydroxyphenyl]cycloheptanol]",,1.53 mg/kg,"Analgesic Activity, HP (IA@10) [4, 5]: IA; ED50 [2]: 5.6 mg/kg; ED50 (""Flinch-Jump"" Test (FJ)): 5.4 mg/kg; Analgesic Activity % Protection, TF [3]: 65%"
"CCCCCCC(C)(C)c1ccc(C2CCCC(=O)C2)c(OCc2ccccc2)c1 (stereo not drawn) [3-[2-Benzyloxy-4-(1,1-dimethylheptyl)phenyl]cyclohexanone]",20%,,
CC(CCCc1ccccc1)Oc1ccc(C2CCCC(=O)C2)c(O)c1 (stereo not drawn) [3-[2-hydroxy-4-(2-(5-phenylpentyloxy))phenyl]cyclohexanone],,≥ 56 mg/kg,
"CCCCCCC(C)(C)c1ccc(C2(C)CCCC(=O)C2)c(O)c1 (stereo not drawn) [3-[4-(1,1-Dimethylheptyl)-2-hydroxyphenyl]-3-methylcyclohexanone]",31%,,
"CCCCCCC(C)(C)c1ccc(C2CCCCC(=O)C2)c(O)c1 (stereo not drawn) [3-[4-(1,1-Dimethylheptyl)-2-hydroxyphenyl]cycloheptanone]",,2.15 mg/kg,"Analgesic Activity % Protection, HP [4, 5]: 33%; ED50 [2]: 4.4 mg/kg; ED50 (""Flinch-Jump"" Test (FJ)): 10.8 mg/kg; Analgesic Activity % Protection, TF [3]: 58%"
"CCCCCCC(C)(C)c1ccc(C2=CC(=O)CCC2)c(O)c1 [3-[4-(1,1-Dimethylheptyl)-2-hydroxyphenyl]cyclohex-2-enone]",20%,,
"CCCCCCC(C)(C)c1ccc(C2CCCC(=O)C2)c(O)c1 (stereo not drawn) [3-[4-(1,1-Dimethylheptyl)-2-hydroxyphenyl]cyclohexanone]",,4.5 mg/kg,ED50 [3]: 15.3 mg/kg
"CCCCCCC(C)(C)c1ccc(C2CCC(=O)C2)c(O)c1 (stereo not drawn) [3-[4-(1,1-Dimethylheptyl)-2-hydroxyphenyl]cyclopentanone]",15%,,
"CN1CC[C@]23c4c5ccc(O)c4O[C@H]2[C@@H](O)C=C[C@H]3[C@H]1C5 [Morphine, reference compound]",,,"MPE50, hot plate ([4]; s.c., mouse): 4 to 5.6 mg/kg; activity in Haffner tail pinch ([2]; 17.8 mg./kg. (i.p.), rat): active; MPE50, tail flick ([3]; s.c., mouse): 3.2 to 5.6 mg/kg"
CC(CCCc1ccccc1)Oc1ccc([C@@H]2CCC[C@H](O)C2)c(O)c1 (stereo partly drawn) [cis-3-[2-hydroxy-4-(2-(5-phenylpentyloxy))phenyl]cyclohexanol],,38 mg/kg,
"O=C1CCCC(c2ccc(O)cc2O)C1 (stereo not drawn) [x=1; A+B=oxo; R2=H; R3=H; Z=O; W=H, 3-(2,4-Dihydroxyphenyl)cyclohexanone]",32%,,
"COC12CCCC(C1)c1ccc(O)cc1O2 (stereo not drawn) [x=1; A+B=oxo^(c); R2=H; R3=H; Z=O; W=H, 3-(2,4-Dihydroxyphenyl)cyclohexanone Methyl Ketal]",43%,,
